Structures can show the parent of a compound that is named as a salt.

This data set in a line: saturation and payload limits for dip coating bupivacaine HCl on polyester mesh (FIG. 8). The note with it: Parietex monofilament polyester mesh without polymer film. It counts as physicochemical. The source says: Further, it is believed that spraying films on a medical device (e.g., mesh) compared to other conventional methods, such as dip coating, provides increased loading of the therapeutic agent.
More particularly FIG. 8 illustrates the loading limits for a polyester mesh (Parietex™ monofilament mesh) without a polymer film.

Take `CCCCN1CCCCC1C(=O)Nc1c(C)cccc1C` (centres unmarked) [bupivacaine HCl, bupivacaine hydrochloride]: the “saturation and payload limit for dip coating solution” value is reported as 12 % w/v (solution in MeOH) and 5 % w/v (solution in water).

These data come from patent US8632839B2, “Methods of forming self-supporting films for delivery of therapeutic agents” (priority 2010, dated 2014).
